The text below walks through data of ChEMBL document CHEMBL1135219, “Anti-HIV-1 activities and pharmacokinetics of new arylpiperazinyl fluoroquinolones” (Bioorg Med Chem Lett, 2002).

The term Cmax denotes the highest concentration seen after dosing. In general, Tmax refers to the time from dosing to the highest level. A word on the CC50: it is the concentration giving 50% cytotoxicity. A word on the pIC50: it is the IC50 on a negative log10 scale, so that one unit is a factor of ten. Read a low pIC50 as a large IC50. What is called half-life is the time needed for the level to fall by half in the phase considered. A lower half-life goes with fast loss. As usually defined, the AUC is concentration integrated over time. A higher AUC goes with more exposure. One may read the MRT as the average time that molecules of a dose stay in the body.

pIC50: −log10 of the molar value.

Series [1] is described as follows: Peak concentration (Cmax) at a dose of 20 mg/kg in rats. Type of series: ADME, organism-based. The arrangement: dose 20 mg/kg. As to conditions: rat, in vivo.
Series [2] in a line: Time for peak concentration (tmax) at a dose of 20 mg/kg in rats. Type of series: ADME, organism-based. The arrangement: dose 20 mg/kg. As to conditions: rat, in vivo.
The subject of series [3] is MT4. Nature of the series: The compound was tested for cytotoxicity against mock-infected MT-4 cells. Type of series: functional. To be noted: Homo sapiens.
In series [4] the test system is MT4. Nature of the series: The compound was tested against HIV-1(IIIB) replication on the inhibition of virus -induced cytopathogenicity in MT-4 cells. Type of series: functional, cell-based. As to conditions: Homo sapiens. Background: Cytopathic effects are the visible damage that an infection or toxin causes in cultured cells.
Series [5] deals with MT4. Nature of the series: The compound was tested against HIV-1(IIIB) replication on the inhibition of virus -induced cytopathogenicity in MT-4 cells. Type of series: functional, cell-based. As to conditions: Homo sapiens.
The test system of series [6] is MT4. The series is described as follows: The compound was tested for cytotoxicity against mock-infected MT-4 cells. Format: functional. As to conditions: Homo sapiens.
Series [7] in a line: Half-life period after intravenous administration in cynomolgus monkeys. Format: ADME, organism-based. To be noted: cercopithecidae, in vivo.
The nature of series [8]: Half-life period after oral administration in cynomolgus monkeys. As to conditions: cercopithecidae, in vivo. Type of series: ADME, organism-based.
Series [9] in a line: Area under curve was determined using trapezoidal rule after intravenous administration in cynomolgus monkeys. Type of series: ADME. As to conditions: cercopithecidae, in vivo.
A short description of series [10]: Area under curve was determined using trapezoidal rule after oral administration in cynomolgus monkeys. Format: ADME. As to conditions: cercopithecidae, in vivo.
The nature of series [11]: Bioavailability was reported in cynomolgus monkeys (ratio of AUC in oral administration to that of intravenous administration). Type of series: ADME, organism-based. To be noted: cercopithecidae, in vivo, read-out: BA.
A short description of series [12]: The time for peak concentration value after oral administration in cynomolgus monkeys. As to conditions: cercopithecidae, in vivo. Format: ADME, organism-based.
A short description of series [13]: Mean residence time was determined after intravenous administration in cynomolgus monkeys. Type of series: ADME, organism-based. To be noted: cercopithecidae, in vivo.
Series [14] can be described thus: The peak concentration (Cmax) value after oral administration in cynomolgus monkeys. Set-up: route oral. To be noted: cercopithecidae, in vivo. Type of series: ADME, organism-based.
The nature of series [15]: The distribution volume after intravenous administration in cynomolgus monkeys. As to conditions: cercopithecidae, in vivo, read-out: Vdss. Type of series: ADME, organism-based.
Series [16] is described as follows: The total clearance was determined after intravenous administration in cynomolgus monkeys. Type of series: ADME, organism-based. To be noted: cercopithecidae, in vivo, read-out: CLtotal (converted).
Series [17] in a line: Peak concentration (Cmax) at a dose of 10 mg/kg in rats. Type of series: ADME, organism-based. Set-up: dose 10 mg/kg. As to conditions: rat, in vivo.
Series [18] is described as follows: Time for peak concentration (tmax) at a dose of 10 mg/kg in rats. Set-up: dose 10 mg/kg. Type of series: ADME, organism-based. As to conditions: rat, in vivo.

As for `CCn1cc(C(=O)O)c(=O)c2cc(F)c(N3CCN(c4ccccn4)CC3)c(C(F)(F)F)c21`, the concentration in [1] peaked (Cmax) at 6740 ng/mL. Also, the Tmax in series [2] was 2 h. The 50% cytotoxic concentration (CC50) with MT4 [3] was 370 nM. The molecule further had a pIC50 in the series on MT4 [4] of 7.59.

Regarding `COc1ccccc1N1CCN(c2c(F)cc3c(=O)c(C(=O)O)cn(C)c3c2C(F)F)CC1`, the pIC50 in the series with MT4 [5] was 6.46. The molecule also yielded a CC50 in the series with MT4 [6] of 11000 nM.

On to `Cn1cc(C(=O)O)c(=O)c2cc(F)c(N3CCN(c4ccccn4)CC3)c(C(F)(F)F)c21`, for which the half-life in series [7] was 8.8 h; in series [8] it was 7.5 h. Besides, the AUC stood at 18400 ng·h/mL in series [9] and 17200 ng·h/mL in series [10]. The bioavailability in [11] came to 93.5%. Also, the results for the Tmax in series [12] and in series [2] were 2 h and 1 h, respectively. Further, the MRT in [13] stood at 9.3 h. The Cmax in series [14] came out at 1400 ng/mL; in [1], 26400 ng/mL. Besides, the Vd in series [15] is 0.509 L/kg. Besides, the clearance in [16] is 0.928 mL/min/kg. Half-maximal cytotoxicity in the series with MT4 [3] (CC50) was put at 220 nM. This molecule also had a pIC50 in the series with MT4 [4] of 7.85.

Molecule `CCn1cc(C(=O)O)c(=O)c2cc(F)c(N3CCN(c4ncccn4)CC3)c(C(F)(F)F)c21` had a Cmax in series [1] of 5460 ng/mL. For the same molecule, in series [2], the time of peak concentration (Tmax) is 2 h. Moreover, the CC50 with MT4 [3] worked out at 1500 nM. Moreover, in the series on MT4 [4], the pIC50 is 7.02.

For `Cn1cc(C(=O)O)c(=O)c2cc(F)c(N3CCN(c4ncccn4)CC3)c(C(F)(F)F)c21`, the values for the half-life in series [7] and in series [8] were 7.6 h and 8.7 h, respectively. Moreover, the figures for the exposure (AUC) in [9] and in [10] were 16400 ng·h/mL and 18400 ng·h/mL, respectively. In addition, in series [11], the bioavailability is 112%. Further, the values for the time to peak (Tmax) in series [12] and in series [2] were 4 h and 1 h, respectively. In addition, the MRT in series [13] turned out to be 8.2 h. Moreover, the Cmax in [14] was determined as 1500 ng/mL; in series [1], 58500 ng/mL. Besides, in series [15], the Vd was determined as 0.491 L/kg. Also, in series [16], the clearance was 1.08 mL/min/kg. In addition, the CC50 with MT4 [3] is 890 nM. The molecule further had a pIC50 in the series with MT4 [4] of 7.31.

Take `CCn1cc(C(=O)O)c(=O)c2cc(F)c(N3CCN(c4ccccn4)CC3)c(C(F)F)c21`: the pIC50 in the series on MT4 [5] was 6.05. In the series with MT4 [6], this molecule returned a CC50 of 4100 nM.

In the case of `CCn1cc(C(=O)O)c(=O)c2cc(F)c(N3CCN(c4ccccc4OC)CC3)c(C(F)(F)F)c21`, in the series with MT4 [3], the CC50 was determined as 750 nM. The pIC50 in the series on MT4 [4] was 6.96.

Consider `O=C(O)c1cn(C2CC2)c2c(C(F)F)c(N3CCN(c4ncccn4)CC3)c(F)cc2c1=O`, for which the pIC50 with MT4 [5] is 5.43. This molecule had a cytotoxic concentration (CC50) in the series on MT4 [6] of 21000 nM.

`COc1ccccc1N1CCN(c2c(F)cc3c(=O)c(C(=O)O)cn(C4CC4)c3c2C(F)F)CC1` showed a CC50 in the series on MT4 [3] of 12000 nM. The same molecule gave a pIC50 with MT4 [4] of 6.25.

Molecule `O=C(O)c1cn(C2CC2)c2c(C(F)F)c(N3CCN(c4ccccn4)CC3)c(F)cc2c1=O` gave a pIC50 with MT4 [5] of 6.31. The molecule further gave a CC50 with MT4 [6] of 9200 nM.

`O=C(O)c1cn(C2CC2)c2c(C(F)(F)F)c(N3CCN(c4ccccn4)CC3)c(F)cc2c1=O` had a half-life in [7] of 0.7 h. In [9], this molecule came in with an AUC of 3500 ng·h/mL. In addition, the bioavailability in series [11] came out at 4.3%. Also, the Tmax in [12] and in [2] was 2 h each time. Moreover, the MRT in series [13] is 0.8 h. Besides, the Cmax stood at 100 ng/mL in series [14] and 5830 ng/mL in series [1]. Further, in series [15], the Vd amounted to 0.225 L/kg. Besides, in series [16], the clearance is 4.89 mL/min/kg. Further, half-maximal cytotoxicity in the series with MT4 [3] (CC50) was put at 1400 nM. This molecule showed a pIC50 with MT4 [4] of 7.19.

`CCn1cc(C(=O)O)c(=O)c2cc(F)c(N3CCN(c4ncccn4)CC3)c(C(F)F)c21` yielded a CC50 with MT4 [3] of 20000 nM. This molecule also had a pIC50 with MT4 [4] of 6.33.

In the series on MT4 [3], `Cn1cc(C(=O)O)c(=O)c2cc(F)c(N3CCN(c4ncccn4)CC3)c(C(F)F)c21` displayed a CC50 of 13000 nM. In the series with MT4 [4], this molecule had a pIC50 of 6.51.

In the series with MT4 [5], `Cn1cc(C(=O)O)c(=O)c2cc(F)c(N3CCN(c4ccccn4)CC3)c(C(F)F)c21` showed a pIC50 of 6.62. In the series with MT4 [6], this molecule had a CC50 of 9200 nM.

In turn, `CCn1cc(C(=O)O)c(=O)c2cc(F)c(N3CCN(c4ccccc4OC)CC3)c(C(F)F)c21` had a pIC50 in the series on MT4 [5] of 6.66. The molecule further came in with a CC50 in the series on MT4 [6] of 8300 nM.

Take `COc1ccccc1N1CCN(c2c(F)cc3c(=O)c(C(=O)O)cn(C4CC4)c3c2C(F)(F)F)CC1`: in [1], the highest level (Cmax) was 3460 ng/mL. In addition, in [2], the Tmax turned out to be 4 h. The CC50 in the series with MT4 [3] is 870 nM. The pIC50 with MT4 [4] is 7.16.

In series [1], `O=C(O)c1cn(C2CC2)c2c(C(F)(F)F)c(N3CCN(c4ncccn4)CC3)c(F)cc2c1=O` showed a Cmax of 7020 ng/mL. The Tmax in [2] came to 1 h. In the series with MT4 [3], this molecule registered a CC50 of 5200 nM. This molecule also gave a pIC50 with MT4 [4] of 6.72.

On to `COc1ccccc1N1CCN(c2c(F)cc3c(=O)c(C(=O)O)cn(C)c3c2C(F)(F)F)CC1`, for which the Cmax in series [17] came to 2770 ng/mL. In addition, half-maximal cytotoxicity in the series with MT4 [3] (CC50) was put at 500 nM. For the same molecule, the pIC50 with MT4 [4] was 7.27. For the same molecule, the Tmax in [18] stood at 2 h.
